The subject of experiment [1] is mIgG D15-7. It is filed as binding, murine.
The subject of experiment [2] is mIgG F22-4. The class given is binding, murine.
The test system of experiment [3] is mIgG A2-1. It is filed as binding, murine.
Experiment [4] concerns mIgG E4-1. The class given is binding, murine.
The subject of experiment [5] is mIgG C1-7. The class given is binding, murine.
Experiment [6] relates to mIgG F22-4, D15-7, A2-1, E4-1, C1-7. It is filed as binding, murine.
Experiment [7] relates to LPS 2a. Also on record: species or system mice. Particulars: in vivo.

Values joined by “and” are separate entries in the source; they are usually repeats but may differ in a detail not shown here. Equal values may be shown once.

`CO[C@@H]1O[C@@H](C)[C@H](O)[C@@H](O)[C@H]1O[C@@H]1O[C@@H](C)[C@H](O)[C@@H](O)[C@H]1O[C@@H]1O[C@H](CO)[C@@H](O)[C@H](O[C@@H]2O[C@@H](C)[C@H](O[C@H]3O[C@H](CO)[C@@H](O)[C@H](O)[C@H]3O)[C@@H](O)[C@H]2O)[C@H]1NC(C)=O` [(E)CDAB, Methyl α-D-glucopyranosyl-(1→4)-α-L-rhamnopyranosyl-(1→3)-2-acetamido-2-deoxy-β-D-glucopyranosyl-(1→2)-α-L-rhamnopyranosyl-(1→2)-α-L-rhamnopyranoside]: the IC50 in experiment [1] was greater than 1000 µM; in experiment [2] it was 354 µM; in experiment [3], greater than 1000 µM; in experiment [4], greater than 1000 µM; in experiment [5], greater than 1000 µM.

With `COC1OC(C)C(O)C(O)C1OC1OC(CO)C(O)C(OC2OC(C)C(OC3OC(CO)C(O)C(O)C3O)C(O)C2O)C1NC(C)=O` (stereo not shown) [(E)CDA], the half-inhibitory concentration (IC50) was greater than 1000 µM in experiment [1]; 181 µM in experiment [2]; greater than 1000 µM in experiment [3]; greater than 1000 µM in experiment [4]; greater than 1000 µM in experiment [5].

On to `CO[C@@H]1O[C@H](CO)[C@@H](O)[C@H](O[C@@H]2O[C@@H](C)[C@H](O[C@H]3O[C@H](CO)[C@@H](O)[C@H](O)[C@H]3O)[C@@H](O[C@@H]3O[C@@H](C)[C@H](O)[C@@H](O)[C@H]3O[C@@H]3O[C@@H](C)[C@H](O)[C@@H](O)[C@H]3O)[C@H]2O)[C@H]1NC(C)=O` [AB(E)CD, Methyl α-L-rhamnopyranosyl-(1→2)-α-L-rhamnopyranosyl-(1→3)-[α-D-glucopyranosyl-(1→4)]-α-L-rhamnopyranosyl-(1→3)-2-acetamido-2-deoxy-β-D-glucopyranoside], for which the IC50 in experiment [1] was 490 µM; in experiment [2], 21 µM and 21.6 µM; in experiment [3], 378 µM; in experiment [4], 287 µM and 288 µM; in experiment [5], 734 µM.

`CO[C@@H]1O[C@H](CO)[C@@H](O)[C@H](O[C@@H]2O[C@@H](C)[C@H](O[C@H]3O[C@H](CO)[C@@H](O)[C@H](O)[C@H]3O)[C@@H](O[C@@H]3O[C@@H](C)[C@H](O)[C@@H](O)[C@H]3O)[C@H]2O)[C@H]1NC(C)=O` [B(E)CD, Methyl α-L-rhamnopyranosyl-(1→3)-[α-D-glucopyranosyl-(1→4)]-α-L-rhamnopyranosyl-(1→3)-2-acetamido-2-deoxy-β-D-glucopyranoside]: the IC50 in experiment [1] was 198 µM; in experiment [2], 5 µM; in experiment [3], greater than 1000 µM; in experiment [4] it was 87 µM; in experiment [5], greater than 1000 µM.

On to `COC1OC(C)C(OC2OC(CO)C(O)C(O)C2O)C(OC2OC(C)C(O)C(O)C2OC2OC(C)C(O)C(O)C2OC2OC(CO)C(O)C(OC3OC(C)C(OC4OC(CO)C(O)C(O)C4O)C(OC4OC(C)C(O)C(O)C4O)C3O)C2NC(C)=O)C1O` (stereo not shown) [B(E)CDA B(E)C], for which the 50% inhibitory concentration (IC50) in experiment [1] was 60.8 µM; in experiment [2] it was 0.22 µM; in experiment [3] it was 12.9 µM; in experiment [4], 12 µM; in experiment [5], 242 µM. Also, the “improving Ab binding by a factor” value in experiment [1] and in experiment [4] was roughly 4 each time. Moreover, the “gain in recognition / binding improvement by a factor” value in experiment [3] is listed as roughly 25.

Consider `CO[C@@H]1O[C@@H](C)[C@H](O)[C@@H](O)[C@H]1O[C@@H]1O[C@H](CO)[C@@H](O)[C@H](O[C@@H]2O[C@@H](C)[C@H](O[C@H]3O[C@H](CO)[C@@H](O)[C@H](O)[C@H]3O)[C@@H](O[C@@H]3O[C@@H](C)[C@H](O)[C@@H](O)[C@H]3O)[C@H]2O)[C@H]1NC(C)=O` [B(E)CDA], for which the concentration for half-maximal inhibition (IC50) in experiment [1] was 240 µM; in experiment [2], 2.5 µM; in experiment [3], 350 µM; in experiment [4] it was 75 µM; in experiment [5] it was 400 µM.

In the case of `COC1OC(C)C(OC2OC(CO)C(O)C(O)C2O)C(OC2OC(C)C(O)C(O)C2O)C1O` (stereo not shown) [B(E)C], the IC50 in experiment [1], in experiment [2], in experiment [3], in experiment [4] and in experiment [5] was greater than 1000 µM in each case.

As for `COC1OC(C)C(OC2OC(CO)C(O)C(O)C2O)C(OC2OC(C)C(O)C(O)C2OC2OC(C)C(O)C(O)C2OC2OC(CO)C(O)C(OC3OC(C)C(OC4OC(CO)C(O)C(O)C4O)C(OC4OC(C)C(O)C(O)C4OC4OC(C)C(O)C(O)C4OC4OC(CO)C(O)C(O)C4NC(C)=O)C3O)C2NC(C)=O)C1O` [DA B(E)CDA B(E)C, Methyl (2-acetamido-2-deoxy-β-D-glucopyranosyl)-(1→2)-(α-L-rhamnopyranosyl)-(1→2)-(α-L-rhamnopyranosyl)-(1→3)-[α-D-glucopyranosyl-(1→4)]-(α-L-rhamnopyranosyl)-(1→3)-(2-acetamido-2-deoxy-β-D-glucopyranosyl)-(1→2)-(α-L-rhamnopyranosyl)-(1→2)-(α-L-rhamnopyranosyl)-(1→3)-[α-D-glucopyranosyl-(1→4)]-α-L-rhamnopyranoside], the IC50 in experiment [1] came out at 11.9 µM; in experiment [2], 5 µM; in experiment [3] it was 3 µM; in experiment [4] it was 4.4 µM; in experiment [5], 19 µM. The “fold increase in binding” value in experiment [3] worked out at 100 fold.

Consider `COC1OC(C)C(OC2OC(CO)C(O)C(O)C2O)C(OC2OC(C)C(O)C(O)C2OC2OC(C)C(O)C(O)C2OC2OC(CO)C(O)C(O)C2NC(C)=O)C1O` (stereo not shown) [DAB(E)C], for which the IC50 in experiment [1], in experiment [2], in experiment [3], in experiment [4] and in experiment [5] was greater than 1000 µM each time. The “recognition (binding) by the mIgG” value in experiment [6] is “absence of recognition”.

Take “TT: tetanus toxoid alone (140 μg/mice/injection), control [reference compound]”: in experiment [7], the “Anti-LPS 2a antibody titer, individual mouse (1)” value was determined as 0 and the “Anti-LPS 2a antibody titer, individual mouse (2)” value is 0.

These data come from patent publication US8124380B2 (priority 2003, dated 2012).
